Data reported in US20130041023A1, “Composition for Preventing or Treating Rotavirus Infection Comprising Licorice Extract” (priority 2010, published 2013).
Where two headings read alike, the source gives them in different places.

What was measured:
[1] = Cytotoxicity (CC50) in TF-104 cells; assay type: cell-based; settings: rhesus monkey, TF-104 cells (fetal rhesus monkey kidney cell line)
Experimental: In order to the CPE (cytopathic effect) reduction effects and virucidal effects of the compounds separated from licorice on bovine rotavirus NCDV (G6P[1]) and porcine rotavirus KJ205 […][7]), the following in vitro experiment was performed using the fetal rhesus monkey kidney cell line TF-104. First, TF-104 cells were added to a 96-well microplate at a density of 4×10^4 cells/well and cultured with alpha-MEM medium (penicillin 100 units, […], 5% FBS). When the TF-104 cells formed a monolayer, the cells were washed twice with alpha-MEM containing only an antibiotic. Each of NCDV and KJ205 was diluted to an MOI of 0.01 and placed in EP tubes. Each of the licorice extract and the polyphenolic compounds, diluted with dimethylsulfoxide (DMSO), was placed in each of the tubes at varying concentrations and then allowed to react at 4° C. for 1 hour. After 1 hour, the reaction material was inoculated into the washed TF-104 cells in such a manner that one sample concentration was inoculated into 3 wells (hereinafter referred to as “sample-treated groups”). Meanwhile, a non-infected+non-administered control (cell group not infected with NCDV or KJ205 and not treated with the compound) and an infected+non-administered control (virus control; a cell group infected with NCDV or KJ205, but not treated with the compound) were allowed to react under the same conditions for 1 hour, and then inoculated into the TF-104 cells, which were then incubated at 37° C. for 1 hours. After 1 hour, the medium was completely removed from the plate, which was then washed once with PBS. Then, […] medium containing 1 mg/mL of trypsin and antibiotic were dispensed into each well of the plate and incubated at 37° C. for 5-6 days. In the case of the infected +non-administered control group, incubation was performed for 5-6 days until the cytopathic effect (CPE) of the virus clearly appeared. […] After 5-6 days of the incubation, in order to examine the viability of the cells, […] solution (Sigma, UK) was added to each well of the place and allowed to react at 37° C. for 2 hours. Then, the medium was removed, […] solution (1% glacial acetic acid, 49% DDW, 50% EtOH) was added to each well, and after 15 minutes, the absorbance at 540 nm was measured. The virucidal effects (inhibition %) of the inventive compounds separated from licorice compared to the non-infected+non-administered control group and the infected+non-administered control group were calculated using the following equation 1, and the results of the calculation are shown in Table 1 below.

[2] = tested on: porcine rotavirus KJ205 (G5P[7]); assay: CPE inhibition effect, porcine rotavirus KJ205 (TF-104 cells treated after virus inoculation); assay type: cell-based; settings: for EC50: TF-104 cells; for selectivity ratio: rhesus monkey, read-out: S.I. (selective index, CC50/EC50)
Experimental: In order to the CPE (cytopathic effect) reduction effects and virucidal effects of the compounds separated from licorice on bovine rotavirus NCDV (G6P[1]) and porcine rotavirus KJ205 […][7]), the following in vitro experiment was performed using the fetal rhesus monkey kidney cell line TF-104. Inhibition %=(O.D) value of sample-treated group-(O.D) value of infected+non-administered control/(O.D) value of non-infected+non-administered control-(O.D) value of infected+non-administered control×100 [Equation 1] In the above equation, the O.D value means the absorbance measured at 540 nm. Meanwhile, in order to examine the inhibitory effects of the compounds separated from licorice on the CPE of bovine rotavirus NCDV (G6P[1]) and porcine rotavirus KJ205 […][7]), […] were washed twice with alpha-MEM containing only an antibiotic, after which the viruses were inoculated into the TF-104 cells and incubated at 37° C. for 1 hour. After 1 hour, the inoculated virus liquids were completely removed, the virus-inoculated TF-104 cells were treated with varying concentrations of the licorice extract and the polyphenolic compounds. Further, the cytopathic effect inhibition (inhibition %) of the compounds separated from licorice were calculated using equation 1 above in the same manner as described above, and the results of the calculation are shown in Table 1 below.

[3] = tested on: porcine rotavirus KJ205 (G5P[7]); assay: Virucidal effect against porcine rotavirus KJ205 (sample pre-reacted with virus, neutral red readout in TF-104 cells); assay type: cell-based; settings: for EC50: TF-104 cells; for virucidal effect, result in words: bovine and/or porcine rotavirus as worded
Experimental: (§1) In order to the CPE (cytopathic effect) reduction effects and virucidal effects of the compounds separated from licorice on bovine rotavirus NCDV (G6P[1]) and porcine rotavirus KJ205 (G5P[7]), the following in vitro experiment was performed using the fetal rhesus monkey kidney cell line TF-104.
First, TF-104 cells were added to a 96-well microplate at a density of 4×10^4 cells/well and cultured with alpha-MEM medium (penicillin 100 units, […], 5% FBS). When the TF-104 cells formed a monolayer, the cells were washed twice with alpha-MEM containing only an antibiotic. Each of NCDV and KJ205 was diluted to an MOI of 0.01 and placed in EP tubes. Each of the licorice extract and the polyphenolic compounds, diluted with dimethylsulfoxide (DMSO), was placed in each of the tubes at varying concentrations and then allowed to react at 4° C. for 1 hour. After 1 hour, the reaction material was inoculated into the washed TF-104 cells in such a manner that one sample concentration was inoculated into 3 wells (hereinafter referred to as “sample-treated groups”). Meanwhile, a non-infected+non-administered control (cell group not infected with NCDV or KJ205 and not treated with the compound) and an infected+non-administered control (virus control; a cell group infected with NCDV or KJ205, but not treated with the compound) were allowed to react under the same conditions for 1 hour, and then inoculated into the TF-104 cells, which were then incubated at 37° C. for 1 hours. After 1 hour, the medium was completely removed from the plate, which was then washed once with PBS. Then, […] medium containing 1 mg/mL of trypsin and antibiotic were dispensed into each well of the plate and incubated at 37° C. for 5-6 days. In the case of the infected +non-administered control group, incubation was performed for 5-6 days until the cytopathic effect (CPE) of the virus clearly appeared. […] After 5-6 days of the incubation, in order to examine the viability of the cells, […] solution (Sigma, UK) was added to each well of the place and allowed to react at 37° C. for 2 hours. Then, the medium was removed, […] solution (1% glacial acetic acid, 49% DDW, 50% EtOH) was added to each well, and after 15 minutes, the absorbance at 540 nm was measured. The virucidal effects (inhibition %) of the inventive compounds separated from licorice compared to the non-infected+non-administered control group and the infected+non-administered control group were calculated using the following equation 1, and the results of the calculation are shown in Table 1 below.
Inhibition %=(O.D) value of sample-treated group−(O.D) value of infected+non-administered control/(O.D) value of non-infected+non-administered control−(O.D) value of infected+non-administered control×100 [Equation 1]
(§2) In the above equation, the O.D value means the absorbance measured at 540 nm.

[4] = tested on: bovine rotavirus NCDV (G6P[1]); assay: Virucidal effect against bovine rotavirus NCDV (sample pre-reacted with virus, neutral red readout in TF-104 cells); assay type: cell-based
Experimental: as §1
First, TF-104 cells were added to a 96-well microplate at a density of 4×10^4 cells/well and cultured with alpha-MEM medium (penicillin 100 units, […], 5% FBS). When the TF-104 cells formed a monolayer, the cells were washed twice with alpha-MEM containing only an antibiotic. Each of NCDV and KJ205 was diluted to an MOI of 0.01 and placed in EP tubes. […] Then, the medium was removed, […] solution (1% glacial acetic acid, 49% DDW, 50% EtOH) was added to each well, and after 15 minutes, the absorbance at 540 nm was measured. The virucidal effects (inhibition %) of the inventive compounds separated from licorice compared to the non-infected+non-administered control group and the infected+non-administered control group were calculated using the following equation 1, and the results of the calculation are shown in Table 1 below. […]
as §2

[5] = CPE inhibition effect section, KJ205 (G5P[7]), read-out: CC50
[6] = Virucidal effect, KJ205 (G5P[7])

| EC50 [2] [µM] | SMILES | CC50 [1, 5] [µM] | selectivity ratio [2] | melting point [°C] | EC50 [3, 6] [µM] | virucidal effect, result in words [3] | CC50 ([1]; Virucidal effect section, NCDV (G6P[1]) columns, read-out: CC50 (50% concentration from cytotoxic concentration)) [µM] | EC50 ([4]; Rotavirus A, TF-104 cells, read-out: EC50 (50% concentration from inhibition concentration)) [µM] | selectivity ratio ([4]; rhesus monkey, read-out: S.I. (selective index, CC50/EC50)) | selectivity ratio ([3]; rhesus monkey, Virucidal effect, KJ205 (G5P[7]), read-out: S.I. (selective index, CC50/EC50)) |
| --- | --- | --- | --- | --- | --- | --- | --- | --- | --- | --- |
| 35.3 | O=C(/C=C/c1ccc(O)cc1)c1ccc(O)cc1O [Compound 1, isoliquiritigenin] | 138 | 3.9 | – | – | – | – | – | – | – |
| 24 | COc1cc(O)ccc1C(=O)/C=C/c1ccc(O)cc1 [Compound 2, 2-methoxyisoliquiritigenin] | 280 | 11.7 | – | – | – | – | – | – | – |
| – | COc1c(CC=C(C)C)c(O)cc2c1CC(c1ccc(O)cc1O)CO2 (stereo not drawn) [Compound 4, glyasperin C] | – | – | – | 18.7 | selective virucidal effects against porcine rotavirus | 39.1 | 26.2 | 1.5 | 2.1 |

| SMILES | EC50 [2] [µM] | CC50 [1, 5] [µM] | selectivity ratio [2] | melting point [°C] | EC50 [3, 6] [µM] | virucidal effect, result in words [3] | CC50 ([1]; Virucidal effect section, NCDV (G6P[1]) columns, read-out: CC50 (50% concentration from cytotoxic concentration)) [µM] | EC50 ([4]; Rotavirus A, TF-104 cells, read-out: EC50 (50% concentration from inhibition concentration)) [µM] | selectivity ratio ([4]; rhesus monkey, read-out: S.I. (selective index, CC50/EC50)) | selectivity ratio ([3]; rhesus monkey, Virucidal effect, KJ205 (G5P[7]), read-out: S.I. (selective index, CC50/EC50)) |
| --- | --- | --- | --- | --- | --- | --- | --- | --- | --- | --- |
| COc1c(CC=C(C)C)c(O)cc2oc(-c3ccc(O)cc3O)cc12 [Compound 3, licocoumarone] | 26.1 | 59.6 | 2.3 | 183 to 185 | 26.1 | good inhibitory activities against bovine and porcine rotaviruses | – | – | – | – |
